Reference: US8987194B2, “Mutant Nisin ser 29 derivatives and the use thereof” (priority 2009, dated 2015)
Where two headings read alike, the source gives them in different places. Where no end group is shown, it is not given here.

Experiments:
[1] = literature reports; cited from earlier work
[2] = tested on: Gram-positive pathogens including Listeria monocytogenes and/or Staphylococcus aureus; conditions: cited from earlier work
gram-negative = conditions: introduction of positively charged residues; cited from earlier work
pore formation = conditions: cited from earlier work
[3] = tested on: penicillin-susceptible strain of Strep. pneumoniae; conditions: cited from earlier work
L. lactis HP [4] = experiment: Agarose-based diffusion assay of Nisin A S29 supernatants; assay type: cell-based, L. lactis spp cremoris; conditions: for Measurement of inhibitory zone, Average a + b + c: average of three replicates; for Measurement of inhibitory zone, L. lactis HP (a): replicate a; for Measurement of inhibitory zone, L. lactis HP (b): replicate b; for Measurement of inhibitory zone, L. lactis HP (c): replicate c
Procedure: The Nisin A S29 derivatives were retested using this assay (See FIG. 1).
The modified agarose-based assay was performed against 2 indicator strains, L. lactis spp cremoris HP (Table. 6) and Listeria monocytogenes LO28 (Table. 7).

L. lactis HP [5] = experiment: Deferred antagonism assay (agar overlay); assay type: cell-based, Lactococcus lactis spp cremoris; conditions: in Table 2 a listed strain = enhanced
Procedure: (§1) Deferred antagonism assays were performed by replicating strains on GM17 agar plates and allowing them to grow overnight before overlaying with either GM17/BHI/TSB-YE/MH agar (0.75% w/v agar) seeded with the appropriate indicator strain. For higher throughput screening of the S29X bank, deferred antagonism assays were performed by replicating strains using a 96 pin replicator (Boekel) or spotting 5 μl of a fresh overnight culture on GM17 agar plates and allowing them to grow overnight. Following overnight growth the strains were subjected to UV radiation for 30 minutes prior to overlaying with either GM17/BHI/TS/MH agar (0.75% w/v agar) seeded with the appropriate indicator

S. aureus RF122 = experiment: Deferred antagonism assay (agar overlay); assay type: cell-based, Staphylococcus aureus; conditions: in Table 2 a listed strain = enhanced
Procedure: as §1

Row | Substance | Measurement of inhibitory zone, Average a + b + c (L. lactis HP [4]) [mm] | Measurement of inhibitory zone, L. lactis HP (a) (L. lactis HP [4]) [mm] | Measurement of inhibitory zone, L. lactis HP (b) (L. lactis HP [4]) [mm] | Measurement of inhibitory zone, L. lactis HP (c) (L. lactis HP [4]) [mm] | further results
1 | I1W: aromatic residue-containing form of Nisin, literature (WTSISLCTPGCKTGALMGCNMKTATCHCSIHVSK; UniProt P13068 24-57, looked up, variant I1W) | – | – | – | – | antimicrobial activity of bioengineered derivative relative to Nisin [1]: reduced antimicrobial activity
2 | I30W: aromatic residue-containing form of Nisin, literature (ITSISLCTPGCKTGALMGCNMKTATCHCSWHVSK; UniProt P13068 24-57, looked up, variant I30W) | – | – | – | – | antimicrobial activity of bioengineered derivative relative to Nisin [1]: reduced antimicrobial activity
3 | K22E (ITSISLCTPGCKTGALMGCNMETATCHCSIHVSK; UniProt P13068 24-57, looked up, variant K22E) | – | – | – | – | antimicrobial activity of bioengineered derivative relative to Nisin [1]: detrimental impact
4 | K22S: Nisin hinge region derivative (Field et al., 2008) (ITSISLCTPGCKTGALMGCNMSTATCHCSIHVSK; cysteine pairing not given here; also: lantibiotic nisin-A post-translational modifications, not placed; UniProt P13068 24-57, looked up, variant K22S) | – | – | – | – | bioactivity and specific activity against Gram-positive pathogens [2]: enhanced bioactivity and specific activity
5 | M21E (ITSISLCTPGCKTGALMGCNEKTATCHCSIHVSK; UniProt P13068 24-57, looked up, variant M21E) | – | – | – | – | antimicrobial activity of bioengineered derivative relative to Nisin [1]: detrimental impact
6 | M21K (ITSISLCTPGCKTGALMGCNKKTATCHCSIHVSK; UniProt P13068 24-57, looked up, variant M21K) | – | – | – | – | outcome with respect to anti-gram-negative activity (gram-negative): more beneficial outcome
7 | N20F: aromatic residue-containing form of Nisin, literature (ITSISLCTPGCKTGALMGCFMKTATCHCSIHVSK; UniProt P13068 24-57, looked up, variant N20F) | – | – | – | – | antimicrobial activity of bioengineered derivative relative to Nisin [1]: reduced antimicrobial activity
8 | N20P/M21P: Nisin peptide with proline incorporation, literature (ITSISLCTPGCKTGALMGCPPKTATCHCSIHVSK; cysteine pairing not given here; also: lantibiotic nisin-A post-translational modifications, not placed; UniProt P13068 24-57, looked up, variant N20P M21P) | – | – | – | – | pore formation (pore formation): incapable of pore formation
9 | N20P: Nisin hinge region derivative (Field et al., 2008) (ITSISLCTPGCKTGALMGCPMKTATCHCSIHVSK; cysteine pairing not given here; also: lantibiotic nisin-A post-translational modifications, not placed; UniProt P13068 24-57, looked up, variant N20P) | – | – | – | – | bioactivity and specific activity against Gram-positive pathogens [2]: enhanced bioactivity and specific activity
10 | Nisin | – | – | – | – | minimum inhibitory concentration (MIC) ([3]; before serial exposure to Nisin (1 mg/L)): 0.4 µg/mL; minimum inhibitory concentration (MIC) ([3]; stable Nisin-resistant mutants after serial exposure to Nisin (1 mg/L)): 6.4 µg/mL
11 | Nisin A S29F: Nisin A derivative with F at position 29 (ITSISLCTPGCKTGALMGCNMKTATCHCFIHVSK; cysteine pairing not given here; also: lantibiotic nisin-A post-translational modifications, not placed; UniProt P13068 24-57, looked up, variant S29F) | 11.0 | 10.6 | 12.2 | 10.2 | –
12 | Nisin A S29H: Nisin A derivative with H at position 29 (ITSISLCTPGCKTGALMGCNMKTATCHCHIHVSK; cysteine pairing not given here; also: lantibiotic nisin-A post-translational modifications, not placed; UniProt P13068 24-57, looked up, variant S29H) | 10.93 | 11.2 | 10.7 | 10.9 | –
13 | Nisin A S29I: Nisin A derivative with I at position 29 (ITSISLCTPGCKTGALMGCNMKTATCHCIIHVSK; cysteine pairing not given here; also: lantibiotic nisin-A post-translational modifications, not placed; UniProt P13068 24-57, looked up, variant S29I) | 9.9 | 9.2 | 11.3 | 9.2 | –
14 | Nisin A S29L: Nisin A derivative with L at position 29 (ITSISLCTPGCKTGALMGCNMKTATCHCLIHVSK; cysteine pairing not given here; also: lantibiotic nisin-A post-translational modifications, not placed; UniProt P13068 24-57, looked up, variant S29L) | 12.76 | 12.6 | 13.5 | 12.2 | –
15 | Nisin A S29M: Nisin A derivative with M at position 29 (ITSISLCTPGCKTGALMGCNMKTATCHCMIHVSK; cysteine pairing not given here; also: lantibiotic nisin-A post-translational modifications, not placed; UniProt P13068 24-57, looked up, variant S29M) | 13.56 | 13.2 | 14.5 | 13.0 | –
16 | Nisin A S29Q: Nisin A derivative with Q at position 29 (ITSISLCTPGCKTGALMGCNMKTATCHCQIHVSK; cysteine pairing not given here; also: lantibiotic nisin-A post-translational modifications, not placed; UniProt P13068 24-57, looked up, variant S29Q) | 15.30 | 15.3 | 15.2 | 15.4 | –
17 | Nisin F | – | – | – | – | bioactivity compared to wild type (natural) Nisin variant (L. lactis HP [5]): Nisin A<Nisin F
18 | Nisin Z | – | – | – | – | bioactivity compared to wild type (natural) Nisin variant (S. aureus RF122): Nisin A<Nisin Z
